{"source": "ChEMBL document CHEMBL5614422", "about": "“Design, synthesis and biological evaluation of N-salicyloyl tryptamine derivatives as multifunctional neuroprotectants for the treatment of ischemic stroke” (Eur J Med Chem, 2024)", "key": {"Mus musculus [1]": {"test_system": "Mus musculus", "test": "In vivo activation of Nrf2 pathway in MCAO-R induced 12 hrs fasted male C57BL/6J mouse model assessed as increase in HO-1 expression level at 10 to 50 mg/kg, ip by Western blot analysis", "assay_type": "functional, organism-based", "settings": "dose 10-50 mg/kg"}, "Mus musculus [2]": {"test_system": "Mus musculus", "test": "Neuroprotective activity against MCAO-R induced 12 hrs fasted male C57BL/6J mouse model assessed as decrease in LDH level in cerebral ischemic tissue at 10 to 50 mg/kg, ip administered once a day for 7 days", "assay_type": "functional, organism-based", "settings": "dose 10-50 mg/kg, time 7.0 day"}, "BV-2 [3]": {"test_system": "BV-2", "test": "Anti-inflammatory activity against OGD/R and erastin induced ferroptosis in mouse BV-2 cells assessed as inhibition of IL-6 production preincubated for 6 hrs followed by OGD addition and measured after 1 hr by ELISA method", "assay_type": "functional, cell-based", "settings": "dose 10-40 µM, time 7.0 hrs"}, "HT-22 [4]": {"test_system": "HT-22", "test": "Cytoprotective activity against OGD/R induced mouse HT-22 cells assessed as increase in cell viability at 10 uM measured after 24 hrs by MTT assay", "assay_type": "functional, cell-based"}, "HT-22 [5]": {"test_system": "HT-22", "test": "Upregulation of GCLC protein level in OGD/R induced mouse HT-22 cells at 1 to 10 uM by Western blot analysis", "assay_type": "functional, cell-based", "settings": "dose 1-10 µM"}, "Mus musculus [6]": {"test_system": "Mus musculus", "test": "In vivo activation of Nrf2 pathway in MCAO-R induced 12 hrs fasted male C57BL/6J mouse model assessed as increase in NQO1 expression level at 10 to 50 mg/kg, ip by Western blot analysis", "assay_type": "functional, organism-based", "settings": "dose 10-50 mg/kg"}, "HT-22 [7]": {"test_system": "HT-22", "test": "Induction of morphological changes in OGD/R induced mouse HT-22 cells assessed as attenuation of cell rounding by microscopic based analysis", "assay_type": "functional"}, "Mus musculus [8]": {"test_system": "Mus musculus", "test": "Neuroprotective activity against MCAO-R induced 12 hrs fasted male C57BL/6J mouse model assessed as reduction in infarct volume at 25 mg/kg, ip for 7 days by TTC staining based analysis", "assay_type": "functional, organism-based", "settings": "time 7.0 day"}, "HT-22 [9]": {"test_system": "HT-22", "test": "Upregulation of HO-1 protein level in OGD/R induced mouse HT-22 cells at 10 uM in presence of ML385 by Western blot analysis", "assay_type": "functional, cell-based"}, "HT-22 [10]": {"test_system": "HT-22", "test": "Anti-apoptotic activity in OGD/R mouse HT-22 cells assessed as reduction in proportion of apoptic cells by annexin V-FITC and PI staining based flow cytometry analysis", "assay_type": "functional, cell-based", "settings": "dose 1-10 µM"}, "BV-2 [11]": {"test_system": "BV-2", "test": "Anti-inflammatory activity against OGD/R and erastin induced ferroptosis in mouse BV-2 cells assessed as inhibition of TNF-alpha production preincubated for 6 hrs followed by OGD addition and measured after 1 hr by ELISA method", "assay_type": "functional, cell-based", "settings": "dose 10-40 µM, time 7.0 hrs"}, "Mus musculus [12]": {"test_system": "Mus musculus", "test": "Neuroprotective activity against MCAO-R induced 12 hrs fasted male C57BL/6J mouse model assessed as decrease in S100 expression in DG by measuring decrease in fluorescence intensity administered once a day as ip dose for 7 days by immunofluorescence method", "assay_type": "functional, organism-based", "settings": "dose 10-50 mg/kg, time 7.0 day"}, "HT-22 [13]": {"test_system": "HT-22", "test": "Anti-ferroptotic activity against OGD/R induced mouse HT-22 cells decrease as in Fe2+ level at 10 uM in presence of ML385 by cell ferrous calorimetry analysis", "assay_type": "functional, cell-based"}, "HT-22 [14]": {"test_system": "HT-22", "test": "Upregulation of HO-1 protein level in OGD/R induced mouse HT-22 cells at 1 to 10 uM by Western blot analysis", "assay_type": "functional, cell-based", "settings": "dose 1-10 µM"}, "HT-22 [15]": {"test_system": "HT-22", "test": "Antioxidant activity against OGD/R induced oxidative stress in mouse HT-22 cells assessed as increase in SOD activity by absorbance based automatic microplate reader analysis", "assay_type": "functional, cell-based"}, "Mus musculus [16]": {"test_system": "Mus musculus", "test": "Neuroprotective activity against MCAO-R induced 12 hrs fasted male C57BL/6J mouse model assessed as decrease in MDA level in cerebral ischemic tissue at 10 to 50 mg/kg, ip administered once a day for 7 days", "assay_type": "functional, organism-based", "settings": "dose 10-50 mg/kg, time 7.0 day"}, "HT-22 [17]": {"test_system": "HT-22", "test": "Upregulation of NQO1 protein level in OGD/R induced mouse HT-22 cells at 1 to 10 uM by Western blot analysis", "assay_type": "functional, cell-based", "settings": "dose 1-10 µM"}, "HT-22 [18]": {"test_system": "HT-22", "test": "Anti-ferroptotic activity against OGD/R induced mouse HT-22 cells decrease in MDA level at 10 uM in presence of ML385", "assay_type": "functional, cell-based"}, "[19]": {"test": "Antioxidant activity assessed as trolox equivalent of ORAC radical scavenging activity at 0.125 to 2 uM by AAPH based automatic microplate reader analysis", "assay_type": "functional", "settings": "dose 0.125-2 µM"}, "HT-22 [20]": {"test_system": "HT-22", "test": "Antioxidant activity against OGD/R induced oxidative stress in mouse HT-22 cells assessed as decrease in MDA content by absorbance based automatic microplate reader analysis", "assay_type": "functional, cell-based"}, "[21]": {"test": "Antioxidant activity assessed as free radical scavenging activity at 40 to 80 uM incubated in dark for 30 mins under shaking condition by DPPH assay", "assay_type": "functional", "settings": "dose 40-80 µM"}, "HT-22 [22]": {"test_system": "HT-22", "test": "Cytoprotective activity against OGD/R induced mouse HT-22 cells assessed as inhibition of intracellular LDH release at 10 uM", "assay_type": "functional, cell-based"}, "BV-2 [23]": {"test_system": "BV-2", "test": "Anti-inflammatory activity against OGD/R and erastin induced ferroptosis in mouse BV-2 cells assessed as inhibition of IL-18 production preincubated for 6 hrs followed by OGD addition and measured after 1 hr by ELISA method", "assay_type": "functional, cell-based", "settings": "dose 10-40 µM, time 7.0 hrs"}, "Mus musculus [24]": {"test_system": "Mus musculus", "test": "Neuroprotective activity against MCAO-R induced 12 hrs fasted male C57BL/6J mouse model assessed as reduction in neurologic deficit score administered as ip once a day for 7 days by TTC staining based analysis", "assay_type": "functional, organism-based", "settings": "time 7.0 day"}, "HT-22 [25]": {"test_system": "HT-22", "test": "Upregulation of Nrf2 protein level in OGD/R induced mouse HT-22 cells at 1 to 10 uM by Western blot analysis", "assay_type": "functional, cell-based", "settings": "dose 1-10 µM"}, "Mus musculus [26]": {"species_on_record": "Mus musculus", "test": "Antiinflammatory activity in MCAO-R induced 12 hrs fasted male C57BL/6J mouse model assessed as reduction in TNF-alpha level by ELISA method", "assay_type": "functional, organism-based"}, "Mus musculus [27]": {"test_system": "Mus musculus", "test": "Neuroprotective activity against MCAO-R induced 12 hrs fasted male C57BL/6J mouse model assessed as decrease in S100 expression in CA3 by measuring decrease in fluorescence intensity administered once a day as ip dose for 7 days by immunofluorescence method", "assay_type": "functional, organism-based", "settings": "dose 10-50 mg/kg, time 7.0 day"}, "Mus musculus [28]": {"species_on_record": "Mus musculus", "test": "Antiinflammatory activity in MCAO-R induced 12 hrs fasted male C57BL/6J mouse model assessed as reduction in IL-18 level by ELISA method", "assay_type": "functional, organism-based"}}, "note": "Calls of active or inactive are those of the source. The rule behind the calls is not given here.", "data": [{"smiles": "Cc1ccc(C(=O)NCCc2c[nH]c3ccc(N(C)C)cc23)c(O)c1", "values": [{"measurement": "Activity", "setting": "Mus musculus [1]", "result": "Active"}, {"measurement": "Activity", "setting": "Mus musculus [2]", "result": "Active"}, {"measurement": "Activity", "setting": "BV-2 [3]", "result": "Dose-Dependent Effect"}, {"measurement": "Activity", "setting": "HT-22 [4]", "result": "Active"}, {"measurement": "Activity", "setting": "HT-22 [5]", "result": "Active"}, {"measurement": "Activity", "setting": "Mus musculus [6]", "result": "Active"}, {"measurement": "Activity", "setting": "HT-22 [7]", "result": "Active"}, {"measurement": "Activity", "setting": "Mus musculus [8]", "result": "Active"}, {"measurement": "Activity", "setting": "HT-22 [9]", "result": "inactive"}, {"measurement": "Activity", "setting": "HT-22 [10]", "result": "Dose-Dependent Effect"}, {"measurement": "Activity", "setting": "BV-2 [11]", "result": "Dose-Dependent Effect"}, {"measurement": "Activity", "setting": "Mus musculus [12]", "result": "Dose-Dependent Effect"}, {"measurement": "Activity", "setting": "HT-22 [13]", "result": "inactive"}, {"measurement": "Activity", "setting": "HT-22 [14]", "result": "Active"}, {"measurement": "Activity", "setting": "HT-22 [15]", "result": "Active"}, {"measurement": "Activity", "setting": "Mus musculus [16]", "result": "Active"}, {"measurement": "Activity", "setting": "HT-22 [17]", "result": "Active"}, {"measurement": "Activity", "setting": "HT-22 [18]", "result": "inactive"}, {"measurement": "Activity", "setting": "[19]", "result": 5.2}, {"measurement": "Activity", "setting": "HT-22 [20]", "result": "Active"}, {"measurement": "Activity", "setting": "[21]", "result": "Active"}, {"measurement": "Activity", "setting": "HT-22 [22]", "result": "Active"}, {"measurement": "Activity", "setting": "BV-2 [23]", "result": "Dose-Dependent Effect"}, {"measurement": "Activity", "setting": "Mus musculus [24]", "result": "Dose-Dependent Effect"}, {"measurement": "Activity", "setting": "HT-22 [25]", "result": "Active"}, {"measurement": "Activity", "setting": "Mus musculus [26]", "result": "Active"}, {"measurement": "Activity", "setting": "Mus musculus [27]", "result": "Dose-Dependent Effect"}, {"measurement": "Activity", "setting": "Mus musculus [28]", "result": "Active"}]}]}
